{
  "source": "ChEMBL document CHEMBL5647688",
  "about": "“Mitogen-activated protein kinase (MEK/ERK) inhibition sensitizes cancer cells to centromere-associated protein E inhibition” (Int J Cancer, 2013)",
  "type_in_all_cases": "functional",
  "key": {"SK-N-FI [1]": {"tested_on": "SK-N-FI", "experiment": "Synergistic cytotoxicity against human SK-N-FI cells assessed as combination index at ED 75 measured after 72 hrs in presence of SN-38 and temozolomide by Cell-titer Glo reagent assay"}, "NCI-H2122": {"tested_on": "NCI-H2122", "experiment": "Synergistic cytotoxicity against human NCI-H2122 cells expressing KRAS mutant assessed as combination index at ED 50 measured after 72 hrs in presence of MEK inhibitor GSK1120212 by Cell-titer Glo reagent assay"}, "NB-1691 [2]": {"tested_on": "NB-1691", "experiment": "Synergistic cytotoxicity against human NB-1691 cells assessed as combination index at ED 75 measured after 72 hrs in presence of SN-38 by Cell-titer Glo reagent assay"}, "HCT-116 [3]": {"tested_on": "HCT-116", "experiment": "Synergistic cytotoxicity against human HCT-116 cells expressing KRAS mutant assessed as combination index at ED75 measured after 72 hrs in presence of MEK inhibitor GSK1120212 by Cell-titer Glo reagent assay"}, "NCI-H358 [4]": {"tested_on": "NCI-H358", "experiment": "Synergistic cytotoxicity against human NCI-H358 cells expressing KRAS mutant assessed as combination index at ED 50 measured after 72 hrs in presence of MEK inhibitor GSK1120212 by Cell-titer Glo reagent assay"}, "HuP-T4": {"tested_on": "HuP-T4", "experiment": "Synergistic cytotoxicity against human HuP-T4 cells expressing KRAS mutant assessed as combination index at ED75 measured after 72 hrs in presence of MEK inhibitor GSK1120212 by Cell-titer Glo reagent assay"}, "NCI-H358 [5]": {"tested_on": "NCI-H358", "experiment": "Synergistic cytotoxicity against human NCI-H358 cells expressing KRAS mutant assessed as combination index at ED75 measured after 72 hrs in presence of MEK inhibitor GSK1120212 by Cell-titer Glo reagent assay"}, "[6]": {"experiment": "Synergistic cytotoxicity against human NB-1771 cells assessed as combination index at ED 50 measured after 72 hrs in presence of concurrent treatment of […] inhibitor CI-1040 by Cell-titer Glo reagent assay"}, "HCT-116 [7]": {"tested_on": "HCT-116", "experiment": "Synergistic cytotoxicity against human HCT-116 cells expressing KRAS mutant assessed as combination index at ED 50 measured after 72 hrs in presence of MEK inhibitor GSK1120212 by Cell-titer Glo reagent assay"}, "NB-1691 [8]": {"tested_on": "NB-1691", "experiment": "Synergistic cytotoxicity against human NB-1691 cells assessed as combination index at ED 50 measured after 72 hrs in presence of SN-38 by Cell-titer Glo reagent assay"}, "MIA PaCa-2": {"tested_on": "MIA PaCa-2", "experiment": "Synergistic cytotoxicity against human MIA PaCa-2 cells expressing KRAS mutant assessed as combination index at ED75 measured after 72 hrs in presence of MEK inhibitor GSK1120212 by Cell-titer Glo reagent assay"}, "Capan-2 [9]": {"tested_on": "Capan-2", "experiment": "Synergistic cytotoxicity against human Capan-2 cells expressing KRAS mutant assessed as combination index at ED75 measured after 72 hrs in presence of MEK inhibitor GSK1120212 by Cell-titer Glo reagent assay"}, "SW1990": {"tested_on": "SW1990", "experiment": "Synergistic cytotoxicity against human SW1990 cells expressing KRAS mutant assessed as combination index at ED 50 measured after 72 hrs in presence of MEK inhibitor GSK1120212 by Cell-titer Glo reagent assay"}, "RKO [10]": {"tested_on": "RKO", "experiment": "Synergistic cytotoxicity against human RKO cells expressing BRAF mutant assessed as combination index at ED 50 measured after 72 hrs in presence of MEK inhibitor GSK1120212 by Cell-titer Glo reagent assay"}, "NB-1691 [11]": {"tested_on": "NB-1691", "experiment": "Synergistic cytotoxicity against human NB-1691 cells assessed as combination index at ED 75 measured after 72 hrs in presence of temozolomide by Cell-titer Glo reagent assay"}, "NCI-H520 [12]": {"tested_on": "NCI-H520", "experiment": "Synergistic cytotoxicity against human NCI-H520 cells assessed as combination index at ED 50 measured after 72 hrs in presence of MEK inhibitor GSK1120212 by Cell-titer Glo reagent assay"}, "NCI-H460": {"tested_on": "NCI-H460", "experiment": "Synergistic cytotoxicity against human NCI-H460 cells expressing KRAS mutant assessed as combination index at ED 50 measured after 72 hrs in presence of MEK inhibitor GSK1120212 by Cell-titer Glo reagent assay"}, "SK-N-FI [13]": {"tested_on": "SK-N-FI", "experiment": "Synergistic cytotoxicity against human SK-N-FI cells assessed as combination index at ED 75 measured after 72 hrs in presence of sequential treatment of […] inhibitor CI-1040 by Cell-titer Glo reagent assay"}, "NCI-H2170 [14]": {"tested_on": "NCI-H2170", "experiment": "Synergistic cytotoxicity against human NCI-H2170 cells assessed as combination index at ED75 measured after 72 hrs in presence of MEK inhibitor GSK1120212 by Cell-titer Glo reagent assay"}, "HPAF-II": {"tested_on": "HPAF-II", "experiment": "Synergistic cytotoxicity against human HPAF-II cells expressing KRAS mutant assessed as combination index at ED 50 measured after 72 hrs in presence of MEK inhibitor GSK1120212 by Cell-titer Glo reagent assay"}, "Capan-2 [15]": {"tested_on": "Capan-2", "experiment": "Synergistic cytotoxicity against human Capan-2 cells expressing KRAS mutant assessed as combination index at ED 50 measured after 72 hrs in presence of MEK inhibitor GSK1120212 by Cell-titer Glo reagent assay"}, "NCI-H1563": {"tested_on": "NCI-H1563", "experiment": "Synergistic cytotoxicity against human NCI-H1563 cells assessed as combination index at ED75 measured after 72 hrs in presence of MEK inhibitor GSK1120212 by Cell-titer Glo reagent assay"}, "Calu-6": {"tested_on": "Calu-6", "experiment": "Synergistic cytotoxicity against human Calu-6 cells expressing KRAS mutant assessed as combination index at ED75 measured after 72 hrs in presence of MEK inhibitor GSK1120212 by Cell-titer Glo reagent assay"}, "YAPC": {"tested_on": "YAPC", "experiment": "Synergistic cytotoxicity against human […] cells expressing KRAS mutant assessed as combination index at ED 50 measured after 72 hrs in presence of MEK inhibitor GSK1120212 by Cell-titer Glo reagent assay"}, "NB-1691 [16]": {"tested_on": "NB-1691", "experiment": "Synergistic cytotoxicity against human NB-1691 cells assessed as combination index at ED 75 measured after 72 hrs in presence of temozolomide and SN-38 by Cell-titer Glo reagent assay"}, "NB-1691 [17]": {"tested_on": "NB-1691", "experiment": "Synergistic cytotoxicity against human NB-1691 cells assessed as combination index at ED 50 measured after 72 hrs in presence of concurrent treatment of […] inhibitor CI-1040 by Cell-titer Glo reagent assay"}, "NCI-H2170 [18]": {"tested_on": "NCI-H2170", "experiment": "Synergistic cytotoxicity against human NCI-H2170 cells assessed as combination index at ED 50 measured after 72 hrs in presence of MEK inhibitor GSK1120212 by Cell-titer Glo reagent assay"}, "NCI-H520 [19]": {"tested_on": "NCI-H520", "experiment": "Synergistic cytotoxicity against human NCI-H520 cells assessed as combination index at ED75 measured after 72 hrs in presence of MEK inhibitor GSK1120212 by Cell-titer Glo reagent assay"}, "SK-N-FI [20]": {"tested_on": "SK-N-FI", "experiment": "Synergistic cytotoxicity against human SK-N-FI cells assessed as combination index at ED 75 measured after 72 hrs in presence of SN-38 by Cell-titer Glo reagent assay"}, "RKO [21]": {"tested_on": "RKO", "experiment": "Synergistic cytotoxicity against human RKO cells expressing BRAF mutant assessed as combination index at ED75 measured after 72 hrs in presence of MEK inhibitor GSK1120212 by Cell-titer Glo reagent assay"}},
  "data": [
    {"smiles": "CC(C)Oc1ccc(C(=O)N[C@H](CNC(=O)CN(C)C)Cc2ccc(-c3cn4cccc([C@H](C)O)c4n3)cc2)cc1Cl", "note": "[GSK-923295A]", "values": [
      {"measurement": "CI", "setting": "SK-N-FI [1]", "result": 1.058},
      {"measurement": "CI", "setting": "NCI-H2122", "result": 0.85},
      {"measurement": "CI", "setting": "NB-1691 [2]", "result": 0.886},
      {"measurement": "CI", "setting": "HCT-116 [3]", "result": 0.384},
      {"measurement": "CI", "setting": "NCI-H358 [4]", "result": 0.416},
      {"measurement": "CI", "setting": "HuP-T4", "result": 0.892},
      {"measurement": "CI", "setting": "NCI-H358 [5]", "result": 0.467},
      {"measurement": "CI", "setting": "[6]", "result": 0.136},
      {"measurement": "CI", "setting": "HCT-116 [7]", "result": 0.695},
      {"measurement": "CI", "setting": "NB-1691 [8]", "result": 0.394},
      {"measurement": "CI", "setting": "MIA PaCa-2", "result": 0.311},
      {"measurement": "CI", "setting": "Capan-2 [9]", "result": 0.153},
      {"measurement": "CI", "setting": "SW1990", "result": 0.176},
      {"measurement": "CI", "setting": "RKO [10]", "result": 0.373},
      {"measurement": "CI", "setting": "NB-1691 [11]", "result": 0.241},
      {"measurement": "CI", "setting": "NCI-H520 [12]", "result": 0.842},
      {"measurement": "CI", "setting": "NCI-H460", "result": 0.25},
      {"measurement": "CI", "setting": "SK-N-FI [13]", "result": 0.757},
      {"measurement": "CI", "setting": "NCI-H2170 [14]", "result": 0.624},
      {"measurement": "CI", "setting": "HPAF-II", "result": 0.567},
      {"measurement": "CI", "setting": "Capan-2 [15]", "result": 0.298},
      {"measurement": "CI", "setting": "NCI-H1563", "result": 0.243},
      {"measurement": "CI", "setting": "Calu-6", "result": 0.533},
      {"measurement": "CI", "setting": "YAPC", "result": 0.659},
      {"measurement": "CI", "setting": "NB-1691 [16]", "result": 0.3},
      {"measurement": "CI", "setting": "NB-1691 [17]", "result": 0.256},
      {"measurement": "CI", "setting": "NCI-H2170 [18]", "result": 0.37},
      {"measurement": "CI", "setting": "NCI-H520 [19]", "result": 0.715},
      {"measurement": "CI", "setting": "SK-N-FI [20]", "result": 1.754},
      {"measurement": "CI", "setting": "RKO [21]", "result": 0.206}
    ]}
  ]
}
